Our source for the Ki values is US12637428B2, “Isoquinoline derivatives as SIK2 inhibitors” (Cancer Research Technology Limited, priority 2019, dated 2026).

By Ki is commonly meant the equilibrium dissociation constant of an inhibitor or competing ligand from its target. Read a high Ki as weaker binding.

What all share (format): biochemical
Test [1] concerns the target T1, SIK2 (Homo sapiens, UniProt Q9H0K1).
T1 construct: purchased Life Technologies
Briefly: SIK2 kinase assay, IMAP fluorescence polarization. Particulars: 50 or 100 μM ATP, average. The gist of the method:
(§1)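 IMAP FP format: 0.6-13 nM kinase, 100 nM FAM-peptide substrate, 50 or 100 μM ATP, Tris pH 7.2/4 mM MgCl2/0.2% BSA/2 mM DTT, 60 min RT. Compounds 0.00005-1 μM. Stop with 0.25% IMAP binding reagent (buffer A:B 85:15; 30:70 for Src).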
In general terms: In fluorescence polarisation assays a small probe gives low polarisation when free and higher when bound to something large.

Test [2] addresses T2, SIK1 (Homo sapiens, UniProt P57059).
T2 construct: purchased Life Technologies
Briefly: SIK1 kinase assay, IMAP fluorescence polarization. Particulars: 50 or 100 μM ATP, average. In short, it runs like this: as §1

In test [3] the target is T3, SIK3 (Homo sapiens, UniProt Q9Y2K2).
T3 construct: purchased Life Technologies
T3 sequence (Q9Y2K2 whole entry): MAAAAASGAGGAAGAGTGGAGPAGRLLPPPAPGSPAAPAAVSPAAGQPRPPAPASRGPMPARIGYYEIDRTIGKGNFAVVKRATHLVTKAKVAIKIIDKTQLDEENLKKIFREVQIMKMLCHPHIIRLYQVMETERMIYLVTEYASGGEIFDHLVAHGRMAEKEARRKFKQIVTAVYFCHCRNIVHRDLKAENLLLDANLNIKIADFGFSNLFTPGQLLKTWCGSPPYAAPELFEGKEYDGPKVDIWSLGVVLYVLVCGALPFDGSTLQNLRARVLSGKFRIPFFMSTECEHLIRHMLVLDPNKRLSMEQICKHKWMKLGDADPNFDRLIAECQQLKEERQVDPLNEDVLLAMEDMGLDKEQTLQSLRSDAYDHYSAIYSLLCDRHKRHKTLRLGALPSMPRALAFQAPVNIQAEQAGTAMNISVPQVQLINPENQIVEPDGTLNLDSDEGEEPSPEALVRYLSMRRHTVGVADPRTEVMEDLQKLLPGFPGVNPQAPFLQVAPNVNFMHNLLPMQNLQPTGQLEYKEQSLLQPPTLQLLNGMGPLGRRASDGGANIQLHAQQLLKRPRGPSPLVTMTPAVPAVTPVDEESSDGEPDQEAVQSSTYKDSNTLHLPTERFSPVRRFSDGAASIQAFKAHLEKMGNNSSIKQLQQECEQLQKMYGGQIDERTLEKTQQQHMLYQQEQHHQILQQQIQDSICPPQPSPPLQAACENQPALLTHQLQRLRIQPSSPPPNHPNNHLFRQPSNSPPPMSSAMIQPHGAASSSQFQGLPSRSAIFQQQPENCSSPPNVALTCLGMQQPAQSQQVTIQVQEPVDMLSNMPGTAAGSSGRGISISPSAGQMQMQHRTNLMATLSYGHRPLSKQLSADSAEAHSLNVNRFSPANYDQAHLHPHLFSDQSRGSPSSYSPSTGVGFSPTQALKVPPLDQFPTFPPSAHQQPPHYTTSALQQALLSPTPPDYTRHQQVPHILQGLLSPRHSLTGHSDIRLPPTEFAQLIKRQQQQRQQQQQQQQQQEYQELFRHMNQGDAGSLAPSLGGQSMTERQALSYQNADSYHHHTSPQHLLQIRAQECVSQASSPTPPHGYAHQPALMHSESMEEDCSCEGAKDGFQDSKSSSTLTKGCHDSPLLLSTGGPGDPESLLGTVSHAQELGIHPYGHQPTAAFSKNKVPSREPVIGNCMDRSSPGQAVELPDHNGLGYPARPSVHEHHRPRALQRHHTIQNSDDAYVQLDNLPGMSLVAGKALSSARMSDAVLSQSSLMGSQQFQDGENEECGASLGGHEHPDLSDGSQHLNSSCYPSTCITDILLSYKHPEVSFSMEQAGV
The test is described as follows: SIK3 kinase assay, IMAP fluorescence polarization. Particulars: 50 or 100 μM ATP, average. In short, it runs like this:
as §1

Test [4] concerns the target T4, Abl (Homo sapiens, UniProt P00519).
T4 construct: purchased Life Technologies
Briefly: Abl kinase assay, IMAP fluorescence polarization. Particulars: 50 or 100 μM ATP, average. The gist of the method:
as §1

In test [5] the target is T5, Src (Homo sapiens, UniProt P12931).
T5 construct: purchased Life Technologies
T5 sequence (P12931 whole entry): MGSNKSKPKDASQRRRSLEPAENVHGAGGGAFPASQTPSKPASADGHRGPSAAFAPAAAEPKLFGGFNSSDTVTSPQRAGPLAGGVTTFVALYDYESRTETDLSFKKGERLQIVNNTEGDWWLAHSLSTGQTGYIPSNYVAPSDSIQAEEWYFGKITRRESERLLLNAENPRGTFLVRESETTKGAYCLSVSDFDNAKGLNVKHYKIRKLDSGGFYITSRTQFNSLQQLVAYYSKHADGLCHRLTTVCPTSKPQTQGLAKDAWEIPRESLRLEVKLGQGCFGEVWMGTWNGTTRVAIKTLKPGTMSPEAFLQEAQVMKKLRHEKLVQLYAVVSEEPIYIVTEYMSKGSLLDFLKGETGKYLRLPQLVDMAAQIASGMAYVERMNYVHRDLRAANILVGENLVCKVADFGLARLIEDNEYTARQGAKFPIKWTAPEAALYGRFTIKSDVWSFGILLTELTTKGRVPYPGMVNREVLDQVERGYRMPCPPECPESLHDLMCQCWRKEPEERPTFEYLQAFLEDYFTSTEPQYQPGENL
The test is described as follows: Src kinase assay, IMAP fluorescence polarization. The note with it: 50 or 100 μM ATP, average. In short, it runs like this:
as §1

The target of test [6] is T6, EPHA2 (Homo sapiens, UniProt P29317).
T6 construct: purchased Life Technologies
T6 sequence (P29317 24-976): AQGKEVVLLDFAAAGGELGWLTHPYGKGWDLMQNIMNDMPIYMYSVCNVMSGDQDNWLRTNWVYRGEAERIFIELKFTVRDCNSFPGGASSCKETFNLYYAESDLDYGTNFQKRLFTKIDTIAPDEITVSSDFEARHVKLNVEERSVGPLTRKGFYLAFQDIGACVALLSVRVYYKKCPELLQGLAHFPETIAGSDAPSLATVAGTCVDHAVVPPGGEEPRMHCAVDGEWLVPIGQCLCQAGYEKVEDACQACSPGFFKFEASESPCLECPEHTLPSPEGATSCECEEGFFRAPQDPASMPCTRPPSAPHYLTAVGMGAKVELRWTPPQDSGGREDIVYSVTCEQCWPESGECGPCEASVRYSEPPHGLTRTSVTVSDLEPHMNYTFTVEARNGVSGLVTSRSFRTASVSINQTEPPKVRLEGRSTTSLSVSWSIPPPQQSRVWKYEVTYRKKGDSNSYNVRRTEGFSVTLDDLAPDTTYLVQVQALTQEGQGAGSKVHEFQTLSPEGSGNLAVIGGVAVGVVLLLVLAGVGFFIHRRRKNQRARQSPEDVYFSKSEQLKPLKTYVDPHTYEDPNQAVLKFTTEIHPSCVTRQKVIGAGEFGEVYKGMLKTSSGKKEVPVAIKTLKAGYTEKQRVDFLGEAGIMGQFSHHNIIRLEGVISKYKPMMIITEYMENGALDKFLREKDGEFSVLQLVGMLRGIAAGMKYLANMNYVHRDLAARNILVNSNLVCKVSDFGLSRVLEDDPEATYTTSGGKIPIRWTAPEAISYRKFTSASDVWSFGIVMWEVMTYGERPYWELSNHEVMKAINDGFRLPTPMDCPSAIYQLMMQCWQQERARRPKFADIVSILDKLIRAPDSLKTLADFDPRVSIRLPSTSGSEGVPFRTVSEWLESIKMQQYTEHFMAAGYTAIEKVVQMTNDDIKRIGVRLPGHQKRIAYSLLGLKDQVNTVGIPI
The test is described as follows: EPHA2 kinase assay, IMAP fluorescence polarization. Particulars: 50 or 100 μM ATP, Tris pH 8.5, average.

T1 sequence (Q9H0K1 whole entry): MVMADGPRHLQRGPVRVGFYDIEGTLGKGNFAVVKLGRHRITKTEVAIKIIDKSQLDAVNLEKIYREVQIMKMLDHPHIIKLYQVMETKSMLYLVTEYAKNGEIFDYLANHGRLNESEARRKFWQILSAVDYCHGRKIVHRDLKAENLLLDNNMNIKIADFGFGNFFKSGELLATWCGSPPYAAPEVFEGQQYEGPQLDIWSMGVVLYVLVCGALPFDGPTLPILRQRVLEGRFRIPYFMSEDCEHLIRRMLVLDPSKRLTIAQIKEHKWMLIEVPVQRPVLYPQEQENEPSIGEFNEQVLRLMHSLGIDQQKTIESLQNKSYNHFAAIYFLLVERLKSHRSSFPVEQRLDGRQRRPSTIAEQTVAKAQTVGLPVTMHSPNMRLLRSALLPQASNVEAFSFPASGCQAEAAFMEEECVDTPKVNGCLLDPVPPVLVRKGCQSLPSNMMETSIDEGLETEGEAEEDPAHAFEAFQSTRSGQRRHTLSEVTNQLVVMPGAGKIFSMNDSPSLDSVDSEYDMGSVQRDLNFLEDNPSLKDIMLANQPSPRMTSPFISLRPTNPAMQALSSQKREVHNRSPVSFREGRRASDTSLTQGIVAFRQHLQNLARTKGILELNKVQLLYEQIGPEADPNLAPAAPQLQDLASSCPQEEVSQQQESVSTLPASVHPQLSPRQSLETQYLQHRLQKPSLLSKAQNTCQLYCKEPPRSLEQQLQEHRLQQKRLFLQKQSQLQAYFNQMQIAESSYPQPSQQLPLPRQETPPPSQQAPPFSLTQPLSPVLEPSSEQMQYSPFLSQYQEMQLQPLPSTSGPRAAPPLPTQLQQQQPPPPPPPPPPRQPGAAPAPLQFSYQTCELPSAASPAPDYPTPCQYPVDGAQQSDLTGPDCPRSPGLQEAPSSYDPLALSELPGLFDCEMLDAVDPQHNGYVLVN
T2 sequence (P57059 whole entry): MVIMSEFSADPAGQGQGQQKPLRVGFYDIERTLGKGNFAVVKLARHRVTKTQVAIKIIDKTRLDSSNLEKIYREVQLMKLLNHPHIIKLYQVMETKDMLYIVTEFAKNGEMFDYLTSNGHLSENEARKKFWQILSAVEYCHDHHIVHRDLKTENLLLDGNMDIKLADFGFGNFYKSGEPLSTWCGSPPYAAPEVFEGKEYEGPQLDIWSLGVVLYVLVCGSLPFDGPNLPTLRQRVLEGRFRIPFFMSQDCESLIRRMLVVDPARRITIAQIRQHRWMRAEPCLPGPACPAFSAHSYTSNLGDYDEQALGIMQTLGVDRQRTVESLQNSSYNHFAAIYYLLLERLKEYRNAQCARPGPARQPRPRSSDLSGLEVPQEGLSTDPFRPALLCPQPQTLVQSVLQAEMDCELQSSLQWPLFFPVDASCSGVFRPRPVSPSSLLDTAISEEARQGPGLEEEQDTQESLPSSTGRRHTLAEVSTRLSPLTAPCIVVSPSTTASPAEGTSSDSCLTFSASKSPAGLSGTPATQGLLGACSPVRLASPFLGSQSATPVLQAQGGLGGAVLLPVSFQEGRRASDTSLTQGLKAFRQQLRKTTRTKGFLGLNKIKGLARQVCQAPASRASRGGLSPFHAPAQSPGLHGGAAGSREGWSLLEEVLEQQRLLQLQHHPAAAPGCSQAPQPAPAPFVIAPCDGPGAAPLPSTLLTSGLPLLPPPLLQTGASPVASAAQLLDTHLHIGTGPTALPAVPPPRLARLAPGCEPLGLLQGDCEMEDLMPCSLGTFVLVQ

Regarding `Cc1cccc(F)c1-c1cc(N[C@H]2CCN(C)C2)c2cc(N)ncc2c1` [Example 70, 7-(2-fluoro-6-methyl-phenyl)-N5-[(3S)-1-methylpyrrolidin-3-yl]isoquinoline-3,5-diamine], the Ki in test [1] worked out at 0.111 nM; in test [2], 0.439 nM; in test [3], 4.14 nM; in test [4], 9.94 nM; in test [5], 84.8 nM; in test [6] it was 74.6 nM.

Consider `Cc1cccc(F)c1-c1cc(N[C@@H]2CCNC2)c2cc(N)ncc2c1` [Example 4, 7-(2-fluoro-6-methyl-pheny)-N5-[(3R)-pyrrolidin-3-yl]isoquinoline-3,5-diamine], for which the Ki came out at 0.0703 nM in test [1]; 0.354 nM in test [2]; 0.231 nM in test [3]; 7.79 nM in test [4]; 138 nM in test [5]; 644 nM in test [6].

As to `Cc1cccc(F)c1-c1cc(NC2CCN(C)CC2)c2cc(N)ncc2c1` [Example 54, 7-(2-Fluoro-6-methyl-phenyl)-N5-(1-methyl-4-piperidyl)isoquinoline-3,5-diamine], the Ki in test [1] is 0.0466 nM; in test [2], 0.418 nM; in test [3] it was 0.883 nM; in test [4] it was 16.1 nM; in test [5], 103 nM; in test [6], 195 nM.

Turning to `Cc1cccc(F)c1-c1cc(NC[C@@H]2CCCN2C)c2cc(N)ncc2c1` [Example 55, 7-(2-fluoro-6-methyl-phenyl)-N5-[[(2S)-1-methylpyrrolidin-2-yl]methyl] isoquinoline-3,5-diamine], the Ki in test [1] turned out to be 0.22 nM; in test [2] it was 0.954 nM; in test [3], 3.85 nM; in test [4], 9.11 nM; in test [5] it was 57 nM; in test [6], 183 nM.

Turning to `Cc1cccc(F)c1-c1cc(NC[C@H]2CCCN(C)C2)c2cc(N)ncc2c1` [Example 77, 7-(2-fluoro-6-methyl-phenyl)-N5-[[(3R)-1-methyl-3-piperidyl]methyl] isoquinoline-3,5-diamine], the Ki in test [1] came out at 0.302 nM; in test [2], 1.13 nM; in test [3], 3.74 nM; in test [4], 26.5 nM; in test [5] it was 197 nM; in test [6], 80.1 nM.

In the case of `Cc1cccc(F)c1-c1cc(NC(=O)C2CCNC2)c2cc(N)ncc2c1` (stereo not drawn) [Example 136, N-[3-amino-7-(2-fluoro-6-methyl-phenyl)-5-isoquinolyl] pyrrolidine-3-carboxamide], the Ki was 1.1 nM in test [1]; 1.9 nM in test [2]; 8.89 nM in test [3]; 27.6 nM in test [4]; 147 nM in test [5]; 260 nM in test [6].

In the case of `Cc1cccc(F)c1-c1cc(C(=O)NC2CCN(C)C2)c2cc(N)ncc2c1` (stereo not drawn) [Example 99, 3-Amino-7-(2-fluoro-6-methyl-phenyl)-N-(1-methylpyrrolidin-3-yl)isoquinoline-5-carboxamide], the Ki worked out at 2.91 nM in test [1]; 5.62 nM in test [2]; 38.8 nM in test [3]; 3.04 nM in test [4]; 32.9 nM in test [5]; 29.2 nM in test [6].

Consider `Cc1cccc(F)c1-c1cc(NC2CCN(C)CC2)c2ncncc2c1` [Example 125, 6-(2-Fluoro-6-methyl-phenyl)-N-(1-methyl-4-piperidyl)quinazolin-8-amine], for which the Ki was 1.37 nM in test [1]; 2.99 nM in test [2]; 5 nM in test [3]; over 1000 nM in test [4]; over 1000 nM in test [5]; 244 nM in test [6].

As to `Cc1cccc(F)c1-c1cc(N2CCC[C@H](CN(C)C)C2)c2cc(N)ncc2c1` [Example 60, 5-[(3R)-3-[(dimethylamino)methyl]-1-piperidyl]-7-(2-fluoro-6-methyl-phenyl)isoquinolin-3-amine], the Ki in test [1] was 1.46 nM; in test [2] it was 7.97 nM; in test [3], 42.4 nM; in test [4], 223 nM; in test [5] it was 798 nM; in test [6], over 1000 nM.

`Cc1cccc(F)c1-c1cc(NC2CCNCC2)c2cc(N)ncc2c1` [Example 1, 7-(2-Fluoro-6-methyl-phenyl)-N5-(4-piperidyl)isoquinoline-3,5-diamine]: the Ki in test [1] is 0.0518 nM; in test [2], 0.364 nM; in test [3], 0.352 nM; in test [4], 16.3 nM; in test [5], 153 nM; in test [6] it was 122 nM.

For the molecule `Cc1cccc(F)c1-c1cc(N[C@H]2CCCCNC2)c2cc(N)ncc2c1` [Example 23, N5-[(3S)-azepan-3-yl]-7-(2-fluoro-6-methyl-phenyl)isoquinoline-3,5-diamine], the Ki in test [1] came to 0.0488 nM; in test [2] it was 0.287 nM; in test [3], 0.171 nM; in test [4] it was 3.75 nM; in test [5], 15.9 nM; in test [6] it was 24.6 nM.

`Cc1cccc(F)c1-c1cc(NC2CCNCC2)c2cc(NC(C)C)ncc2c1` [Example 28, 7-(2-fluoro-6-methyl-phenyl)-N3-isopropyl-N5-(4-piperidyl)isoquinoline-3,5-diamine]: the Ki in test [1] was 0.155 nM; in test [2], 1.39 nM; in test [3] it was 0.504 nM; in test [4], 14.8 nM; in test [5], 413 nM; in test [6], over 1000 nM.

As to `CC(=O)NC1CCN(c2cc(-c3c(C)cccc3F)cc3cnc(N)cc23)CC1` [Example 114, N-[1-[3-amino-7-(2-fluoro-6-methyl-phenyl)-5-isoquinolyl]-4-piperidyl]acetamide], the Ki in test [1] was 0.617 nM; in test [2], 12 nM; in test [3], 20.3 nM; in test [4] it was 16.4 nM; in test [5], 1600 nM; in test [6] it was over 1000 nM.

Take `CCN1CCC(Nc2cc(-c3c(C)cccc3F)cc3cncnc23)CC1` [Example 126, N-(1-Ethyl-4-piperidyl)-6-(2-fluoro-6-methyl-phenyl)quinazolin-8-amine]: the Ki came out at 3.01 nM in test [1]; 2.95 nM in test [2]; 6.35 nM in test [3]; 92.7 nM in test [4]; 539 nM in test [5]; 302 nM in test [6].

With `CN[C@H]1CCN(c2cc(-c3c(C)cccc3F)cc3cnc(N)cc23)C1` [Example 16, 7-(2-fluoro-6-methyl-phenyl)-5-[(3S)-3-(methylamino)pyrrolidin-1-yl]isoquinolin-3-amine], the Ki in test [1] was found to be 0.224 nM; in test [2], 2 nM; in test [3], 4.7 nM; in test [4], 41.6 nM; in test [5], 924 nM; in test [6], 278 nM.

As to `CCN1CCC(Nc2cc(-c3c(C)cccc3Cl)cc3cncnc23)CC1` [Example 131, 6-(2-chloro-6-methyl-phenyl)-N-(1-ethyl-4-piperidyl)quinazolin-8-amine], the Ki came out at 5.59 nM in test [1]; 5.39 nM in test [2]; 20.9 nM in test [3]; 237 nM in test [4]; 285 nM in test [5]; 75.6 nM in test [6].

`Cc1cccc(F)c1-c1cc(NC2CCN(C)CC2)c2cc(N)ncc2c1F` [Example 119, 8-fluoro-7-(2-fluoro-6-methyl-phenyl)-N5-(1-methyl-4-piperidyl)isoquinoline-3,5-diamine]: the Ki in test [1] was 3.11 nM; in test [2], 4.3 nM; in test [3], 25 nM; in test [4], over 1000 nM; in test [5], over 1000 nM; in test [6], over 1000 nM.

Regarding `Cc1cccc(F)c1-c1cc(N2CC(N(C)C)C2)c2cc(N)ncc2c1` [Example 79, 5-[3-(dimethylamino)azetidin-1-yl]-7-(2-fluoro-6-methyl-phenyl)isoquinolin-3-amine], the Ki in test [1] came to 0.101 nM; in test [2], 0.747 nM; in test [3], 2.24 nM; in test [4], 12.7 nM; in test [5], 106 nM; in test [6] it was 84.1 nM.

As to `CC(=O)N[C@@H]1CCN(c2cc(-c3c(C)cccc3F)cc3cnc(N)cc23)C1` [Example 113, N-[(3R)-1-[3-amino-7-(2-fluoro-6-methyl-phenyl)-5-isoquinolyl]pyrrolidin-3-yl]acetamide], the Ki in test [1] is 9.81 nM; in test [2], 74.9 nM; in test [3], 234 nM; in test [4], 88.9 nM; in test [5], 1080 nM; in test [6], over 10000 nM.

For the molecule `Cc1cccc(F)c1-c1cc(NC[C@@H]2CCCN(C)C2)c2cc(N)ncc2c1` [Example 76, 7-(2-fluoro-6-methyl-phenyl)-N5-[[(3S)-1-methyl-3-piperidyl]methyl]isoq uinoline-3,5-diamine], the Ki in test [1] was 0.188 nM; in test [2], 0.516 nM; in test [3] it was 1.64 nM; in test [4], 2 nM; in test [5], 12.7 nM; in test [6], 16.6 nM.

Take `Cc1cccc(F)c1-c1cc(N[C@H]2CCCN(C)C2)c2cc(N)ncc2c1` [Example 86, 7-(2-fluoro-6-methyl-phenyl)-N5-[(3S)-1-methyl-3-piperidyl] isoquinoline-3,5-diamine]: the Ki in test [1] was found to be 0.0838 nM; in test [2], 0.656 nM; in test [3], 1.98 nM; in test [4] it was 6.72 nM; in test [5], 34.3 nM; in test [6] it was 22.3 nM.
